Experimental data taken from PubChem BioAssay AID192 (DTP/NCI, 2004).
Values joined by “and” are separate entries in the source; they are usually repeats but may differ in a detail not shown here. Equal values may be shown once. Inconclusive results and toxic doses are left out. The calls were made as follows: active = survival T/C of 150% or more; inactive = T/C below 125% in these data.

System: BDF1 mice, B16 melanoma ip, median survival T/C
Test: NCI In Vivo Anticancer Drug Screen. Data for tumor model B16 Melanoma (intraperitoneal) in B6D2F1 (BDF1) mice
Conditions: endpoint: median survival time, higher = longer survival
Experimental: The antitumor activity of compounds was measured in mice bearing transplantable tumors. Survival or tumor size were measured and the results are expressed as the measurement made in the treated group (T) divided by the measurement made in the vehicle treated control group (C). The tumor model used in this assay is B16 Melanoma (intraperitoneal) in B6D2F1 (BDF1) mice

[1] = dose: 50.0 mg/kg/injection, schedule: Q01DX009 (ip), vehicle: saline with Tween-80
[2] = dose: 100.0 mg/kg/injection, schedule: Q01DX009 (ip), vehicle: saline with Tween-80
[3] = dose: 200.0 mg/kg/injection, schedule: Q01DX009 (ip), vehicle: saline with Tween-80
[4] = dose: 400.0 mg/kg/injection, schedule: Q01DX009 (ip), vehicle: saline with Tween-80
[5] = dose: 12.5 mg/kg/injection, schedule: Q01DX009 (ip), vehicle: Klucel (hydroxypropylcellulose) (HPC)
[6] = dose: 25.0 mg/kg/injection, schedule: Q01DX009 (ip), vehicle: Klucel (hydroxypropylcellulose) (HPC)
[7] = dose: 50.0 mg/kg/injection, schedule: Q01DX009 (ip), vehicle: Klucel (hydroxypropylcellulose) (HPC)
[8] = dose: 100.0 mg/kg/injection, schedule: Q01DX009 (ip), vehicle: Klucel (hydroxypropylcellulose) (HPC)
[9] = dose: 200.0 mg/kg/injection, schedule: Q01DX009 (ip), vehicle: Klucel (hydroxypropylcellulose) (HPC)
[10] = dose: 6.25 mg/kg/injection, schedule: Q01DX009 (ip), vehicle: Klucel (hydroxypropylcellulose) (HPC)
[11] = dose: 50.0 mg/kg/injection, schedule: Q01DX009 (ip), vehicle: saline
[12] = dose: 100.0 mg/kg/injection, schedule: Q01DX009 (ip), vehicle: saline
[13] = dose: 400.0 mg/kg/injection, schedule: Q01DX009 (ip), vehicle: Klucel (hydroxypropylcellulose) (HPC)
[14] = dose: 100.0 mg/kg/injection, schedule: Q04DX003 (ip), vehicle: saline with Tween-80
[15] = dose: 200.0 mg/kg/injection, schedule: Q04DX003 (ip), vehicle: saline with Tween-80
[16] = dose: 25.0 mg/kg/injection, schedule: Q01DX009 (ip), vehicle: saline with Tween-80
[17] = dose: 6.25 mg/kg/injection, schedule: Q01DX009 (ip), vehicle: saline with Tween-80
[18] = dose: 25.0 mg/kg/injection, schedule: Q01DX009 (ip), vehicle: saline

Measured: T/C

C/C(=N\NC(N)=O)C1=C(O)C(C(C)C)NC1=O (stereo not drawn)
inactive: [1] 91 % of control | [2] 86 % of control | [3] 91 % of control | [4] 91 % of control

COc1cc2c(cc1Oc1c(Oc3c(O)c(OC)cc4c3C(CC(C)C)N(C)CC4)c(OC)cc3c1C(CC(C)C)N(C)CC3)C(CC(C)C)N(C)CC2 (stereo not drawn)
inactive: [5] 100 % of control | [6] 96 % of control | [7] 110 % of control

COc1ccc(C=Nc2ccc(Cl)cc2)cc1
inactive: [7] 104 % of control | [8] 103 % of control | [9] 106 % of control

Clc1cc(CBr)c(Cl)c(Cl)c1CBr
inactive: dose: 1.56 mg/kg/injection, schedule: Q01DX009 (ip), vehicle: Klucel (hydroxypropylcellulose) (HPC) 94 % of control | dose: 3.12 mg/kg/injection, schedule: Q01DX009 (ip), vehicle: Klucel (hydroxypropylcellulose) (HPC) 88 % of control | [10] 94 % of control | [5] 92 % of control

CC(NC(=O)C(N)CCC(=O)O)C(=O)O (stereo not drawn)
inactive: [11] 97 % of control | [12] 90 % of control | dose: 200.0 mg/kg/injection, schedule: Q01DX009 (ip), vehicle: saline 90 % of control | dose: 400.0 mg/kg/injection, schedule: Q01DX009 (ip), vehicle: saline 94 % of control

NC(=O)NC1CCCCCCC1
inactive: [2] 100 % of control | [3] 93 % of control | [4] 104 % of control

O=C1CC2(C(=O)N1CN1CCOCC1)c1ccccc1-c1ccccc12
inactive: [6] 103 % of control | [7] 98 % of control | [8] 98 % of control | [9] 107 % of control | [13] 115 % of control

CC(=O)Nc1nc(=O)n(CC(=O)c2cccs2)cc1F
inactive: dose: 6.25 mg/kg/injection, schedule: Q01DX009 (ip), vehicle: carboxymethylcellulose (CMC) 100 % of control | dose: 12.5 mg/kg/injection, schedule: Q01DX009 (ip), vehicle: carboxymethylcellulose (CMC) 99 % of control | dose: 25.0 mg/kg/injection, schedule: Q01DX009 (ip), vehicle: carboxymethylcellulose (CMC) 94 % of control | [7] 96 % of control | dose: 50.0 mg/kg/injection, schedule: Q01DX009 (ip), vehicle: carboxymethylcellulose (CMC) 102 % of control

COC(=O)C1(C(=O)OC)CC1CCl (stereo not drawn)
inactive: [14] 90 % of control | [15] 96 % of control

COCCOCCN1CCN(CCCN2c3ccccc3Sc3ccc(C(F)(F)F)cc32)CC1
inactive: dose: 0.31 mg/kg/injection, schedule: Q01DX009 (ip), vehicle: saline 106 % of control | dose: 0.62 mg/kg/injection, schedule: Q01DX009 (ip), vehicle: saline 101 % of control | dose: 1.25 mg/kg/injection, schedule: Q01DX009 (ip), vehicle: saline 108 % of control | dose: 2.5 mg/kg/injection, schedule: Q01DX009 (ip), vehicle: saline 100 % of control

CC(=O)N(C)O
inactive: [16] 98 % of control | [1] 107 % of control | [2] 101 % of control | [3] 103 % of control

O=C1C=CC(=O)C2=C1C1c3ccccc3C2([N+](=O)[O-])c2ccccc21
inactive: [8] 97 % of control | [9] 97 % of control | [13] 100 % of control

CC/C(=C(/CC)c1ccc(O)cc1)c1ccc(O)cc1
inactive: [17] 89 % of control | dose: 12.5 mg/kg/injection, schedule: Q01DX009 (ip), vehicle: saline with Tween-80 89 % of control | [16] 89 % of control and 102 % of control | [1] 100 % of control | [3] 97 % of control

C1=CCOCOC1
inactive: dose: 12.5 mg/kg/injection, schedule: Q04DX003 (ip), vehicle: saline 96 % of control | dose: 25.0 mg/kg/injection, schedule: Q04DX003 (ip), vehicle: saline 107 % of control | dose: 50.0 mg/kg/injection, schedule: Q04DX003 (ip), vehicle: saline 93 % of control

O=C1c2ccccc2C(=O)c2c(NCCSCCO)ccc(NCCSCCO)c21
inactive: dose: 16.0 mg/kg/injection, schedule: Q01DX009 (ip), vehicle: Klucel (hydroxypropylcellulose) (HPC) 94 % of control | dose: 32.0 mg/kg/injection, schedule: Q01DX009 (ip), vehicle: Klucel (hydroxypropylcellulose) (HPC) 103 % of control | dose: 64.0 mg/kg/injection, schedule: Q01DX009 (ip), vehicle: Klucel (hydroxypropylcellulose) (HPC) 96 % of control | dose: 128.0 mg/kg/injection, schedule: Q01DX009 (ip), vehicle: Klucel (hydroxypropylcellulose) (HPC) 88 % of control | dose: 256.0 mg/kg/injection, schedule: Q01DX009 (ip), vehicle: Klucel (hydroxypropylcellulose) (HPC) 87 % of control

O=CNc1cc2ccccc2c2ccc3ccccc3c12
inactive: dose: 50.0 mg/kg/injection, schedule: Q04DX003 (ip), vehicle: Klucel (hydroxypropylcellulose) (HPC) 104 % of control | dose: 100.0 mg/kg/injection, schedule: Q04DX003 (ip), vehicle: Klucel (hydroxypropylcellulose) (HPC) 100 % of control

C=C1C(=O)OCC1(C(=O)OCC)C(=O)OCC
inactive: dose: 4.0 mg/kg/injection, schedule: Q01DX009 (ip), vehicle: saline with Tween-80 109 % of control | dose: 8.0 mg/kg/injection, schedule: Q01DX009 (ip), vehicle: saline with Tween-80 97 % of control | dose: 16.0 mg/kg/injection, schedule: Q01DX009 (ip), vehicle: saline with Tween-80 89 % of control

C=C1C(=O)OC2/C=C(\C)CC/C=C(/C=O)C(OC)C(OC(=O)C(C)C)C12 (stereo not drawn)
inactive: [10] 113 % of control | [5] 111 % of control | [6] 104 % of control

Cc1cc(C)c(OC2=C(c3c(C)cc(C)cc3C)C(=O)c3ccccc32)c(C)c1
inactive: [1] 104 % of control | [2] 100 % of control | [3] 98 % of control | [4] 91 % of control

COc1ccc(I)c([N+](=O)[O-])c1
inactive: [7] 93 % of control | [8] 93 % of control | [9] 87 % of control

Cc1cc2nc3ccc(=[N+](C)C)cc-3sc2cc1N
inactive: dose: 3.12 mg/kg/injection, schedule: Q01DX009 (ip), vehicle: saline 116 % of control | dose: 12.5 mg/kg/injection, schedule: Q01DX009 (ip), vehicle: saline 116 % of control | [18] 107 % of control | [11] 97 % of control

CN1CCC=C(CN2c3ccccc3Sc3ccccc32)C1
inactive: [18] 104 % of control | [11] 106 % of control

C1CC2CCC3CCCC4CCC(C1)C2C34 (stereo not drawn)
inactive: dose: 3.13 mg/kg/injection, schedule: Q01DX009 (ip), vehicle: saline with Tween-80 95 % of control | [17] 89 % of control

CSc1nc2ccccc2s1
inactive: [7] 106 % of control | [8] 115 % of control

O=[N+]([O-])c1cc([N+](=O)[O-])c(Nc2cccc3ccccc23)c([N+](=O)[O-])c1
inactive: [7] 92 % of control | [8] 103 % of control | [9] 97 % of control

Oc1ccc(I)c2cccnc12
inactive: [1] 97 % of control | [2] 100 % of control | [3] 97 % of control

O=C(COc1ccc(Cl)cc1Cl)Nc1ccc(F)cc1
inactive: [16] 110 % of control | [1] 91 % of control | [2] 86 % of control

Cc1ccc(NC(=O)c2ccc([N+](=O)[O-])cc2)cc1Cl
inactive: [6] 109 % of control | [7] 99 % of control | [8] 99 % of control

CCOC(CNC(=O)OCc1ccccc1)OCC
inactive: [8] 93 % of control | [9] 93 % of control | [13] 90 % of control

CCOC(CCC#N)c1ccc(Cl)cc1 (stereo not drawn)
inactive: [2] 98 % of control | [3] 96 % of control | [4] 97 % of control

O=C1C(F)=C(N2CC2)C(=O)C(N2CCOCC2)=C1N1CC1
inactive: dose: 0.75 mg/kg/injection, schedule: Q01DX009 (ip), vehicle: saline 118 % of control | dose: 1.5 mg/kg/injection, schedule: Q01DX009 (ip), vehicle: saline 108 % of control | dose: 3.0 mg/kg/injection, schedule: Q01DX009 (ip), vehicle: saline 100 % of control

CN=C(N)Nc1ccc(C(=O)Oc2ccc([N+](=O)[O-])cc2)cc1
inactive: [5] 103 % of control | [6] 102 % of control | [7] 104 % of control | [8] 106 % of control

CCCCCCCCCCCCCCCCN(C(=S)c1ccccc1)c1ccccc1
inactive: [8] 94 % of control | [9] 95 % of control | [13] 97 % of control

CCCCC(C=O)(C=C=C(C)C)CC (stereo not drawn)
inactive: [14] 88 % of control | [15] 95 % of control

Nc1nc(Cl)nc2c1ncn2C1OC(CO)C(O)C1O (stereo not drawn)
inactive: [18] 95 % of control | [11] 93 % of control | [12] 95 % of control

ClC(Cl)=[C](Cl)[Hg][C](Cl)=C(Cl)Cl
inactive: dose: 3.13 mg/kg/injection, schedule: Q01DX009 (ip), vehicle: Klucel (hydroxypropylcellulose) (HPC) 120 % of control | [10] 99 % of control | [5] 92 % of control
